These results are taken from patent US20230111914A1, “SYNTHETIC TRITERPENOIDS WITH NITROGEN-BASED SUBSTITUENTS AT C-17 AND METHODS OF USE THEREOF” (REATA PHARMACEUTICALS, INC., priority 2019, published 2023).

Test [1] concerns AREc32 reporter cell line (luciferase reporter under eight copies of the rat GSTA2 ARE sequence). Description: AREc32 luciferase reporter activation. Conditions: for EC (2-fold): Homo sapiens, read-out: AREc32 EC2X (Mean ± SD). It counts as cell-based, human.
Test [2] concerns IFNγ-induced NO production in RAW 264.7 cells. Description: Nitric oxide suppression assay (IFNγ-induced NO production, Griess nitrite readout). The class given is cell-based, mouse. The note with it: for IC50: Mus musculus.
Where [3] appears, read: Arec32, concentration that increases the luminescence signal 2-fold above vehicle, 19 h treatment.
The mark [4] stands for this setting: RAW264.7, RAW 264.7 cells, 2 h pretreatment, 20 ng/mL interferon gamma 24 h, average of trials per footnote, read-out: NO IC50.

Values joined by “and” are separate entries in the source; they are usually repeats but may differ in a detail not shown here. Identical values can stand only once. Like-named read-outs stand apart in the source and are kept apart here. Marks after values point to notes of the source that are not given here.

In the case of `CC1(C)CC[C@]2(N3CCC(=O)N3)CC[C@]3(C)[C@H](C(=O)C=C4[C@@]5(C)C=C(C#N)C(=O)C(C)(C)[C@@H]5CC[C@]43C)[C@@H]2C1` [Compound T58], the “AREc32 EC2X Relative to RTA 402 (Mean ± SD)” value in test [1] is 5.3^e fold. The EC (2-fold) in test [1] (setting [3]) came to 0.0565 µM. Also, the “NO IC50 Rel. to RTA 402” value in test [2] was 2.97 ± 0.65^d fold. The IC50 in test [2] (setting [4]) turned out to be 12.2 ± 3.32 nM.
For `CC1(C)CC[C@]2(CN3CCC3)CC[C@]3(C)[C@H](C(=O)C=C4[C@@]5(C)C=C(C#N)C(=O)C(C)(C)[C@@H]5CC[C@]43C)[C@@H]2C1` [Compound T25], in that order: 1.5^e fold, 0.022 µM, 1.21 ± 0.45^e fold and 2.5 ± 0.92 nM.
Turning to `CNC(=O)N(C)C[C@]12CCC(C)(C)C[C@H]1[C@H]1C(=O)C=C3[C@@]4(C)C=C(C#N)C(=O)C(C)(C)[C@@H]4CC[C@@]3(C)[C@]1(C)CC2` [Compound T9], the “AREc32 EC2X Relative to RTA 402 (Mean ± SD)” value in test [1] was 0.5 ± 0.20^a fold. Besides, the EC (2-fold) in test [1] (setting [3]) came to 0.0072 ± 0.00077 µM. For the same molecule, in test [2], the “NO IC50 Rel. to RTA 402” value is recorded as 0.38 ± 0.15^e fold. In addition, in test [2] (setting [4]), the half-maximal inhibitory concentration (IC50) amounted to 0.7 ± 0.18 nM.
On the same counts, the results for `CN1CCN([C@]23CCC(C)(C)C[C@H]2[C@H]2C(=O)C=C4[C@@]5(C)C=C(C#N)C(=O)C(C)(C)[C@@H]5CC[C@@]4(C)[C@]2(C)CC3)C1=O` [Compound T31] are 4.3^e fold, 0.0455 µM, 3.13 ± 0.36^d fold and 12.6 ± 1.65 nM.
For `CN(C[C@]12CCC(C)(C)C[C@H]1[C@H]1C(=O)C=C3[C@@]4(C)C=C(C#N)C(=O)C(C)(C)[C@@H]4CC[C@@]3(C)[C@]1(C)CC2)C(=O)OC(C)(C)C` [Compound T5], in that order: 3.9 ± 0.36^a fold, 0.0425 ± 0.00947 µM, 6.04 ± 2.02^d fold and 14.2 ± 6.51 nM.
On the same counts, the results for `CC1(C)CC[C@]2(CNCCO)CC[C@]3(C)[C@H](C(=O)C=C4[C@@]5(C)C=C(C#N)C(=O)C(C)(C)[C@@H]5CC[C@]43C)[C@@H]2C1` [Compound T12] are 1.7^e fold, 0.0218 µM, 4.07 ± 1.08^e fold and 7.47 ± 0.85 nM.
For `CC(=O)NC[C@]12CCC(C)(C)C[C@H]1[C@H]1C(=O)C=C3[C@@]4(C)C=C(C#N)C(=O)C(C)(C)[C@@H]4CC[C@@]3(C)[C@]1(C)CC2` [Compound T3], in test [1], the “AREc32 EC2X Relative to RTA 402 (Mean ± SD)” value is given as 0.2 ± 0.08^a fold. Besides, the EC (2-fold) in test [1] (setting [3]) is 0.0024 ± 0.00044 µM. In test [2], the “NO IC50 Rel. to RTA 402” value was 0.17 fold and 0.17 ± 0.04^e fold; the “times more active (NO IC50) than 63170 relative to RTA 402” value was “more than 29 times”. Also, the IC50 in test [2] (setting [4]) is 0.44 nM.
As to `CNC(=O)NC[C@]12CCC(C)(C)C[C@H]1[C@H]1C(=O)C=C3[C@@]4(C)C=C(C#N)C(=O)C(C)(C)[C@@H]4CC[C@@]3(C)[C@]1(C)CC2` [Compound T8], the “AREc32 EC2X Relative to RTA 402 (Mean ± SD)” value in test [1] is given as 0.2 ± 0.06^a fold. Further, the EC (2-fold) in test [1] (setting [3]) amounted to 0.0028 ± 4e-05 µM. Also, in test [2], the “NO IC50 Rel. to RTA 402” value was 0.21 fold and 0.21 ± 0.05^d fold; the “times more active (NO IC50) than 63172 relative to RTA 402” value is reported as “roughly 37 times”. In addition, the IC50 in test [2] (setting [4]) came out at 0.46 nM.
With `CC1(C)CC[C@]2(n3cccn3)CC[C@]3(C)[C@H](C(=O)C=C4[C@@]5(C)C=C(C#N)C(=O)C(C)(C)[C@@H]5CC[C@]43C)[C@@H]2C1` [Compound T32], in test [1], the “AREc32 EC2X Relative to RTA 402 (Mean ± SD)” value is on record as 2.8 ± 0.62^f fold. Moreover, the EC (2-fold) in test [1] (setting [3]) was 0.0323 ± 0.00139 µM. In addition, the “NO IC50 Rel. to RTA 402” value in test [2] is given as 2.58 ± 0.60^e fold. In addition, the IC50 in test [2] (setting [4]) amounted to 4.89 ± 1.42 nM.
Take `CC1(C)CC[C@]2(CN)CC[C@]3(C)[C@H](C(=O)C=C4[C@@]5(C)C=C(C#N)C(=O)C(C)(C)[C@@H]5CC[C@]43C)[C@@H]2C1` [CC2, reference compound]: the “AREc32 EC2X Relative to RTA 402 (Mean ± SD)” value in test [1] is reported as 1.6 ± 0.17^g fold. The EC (2-fold) in test [1] (setting [3]) was 0.0161 ± 0.00081 µM. For the same molecule, the “NO IC50 Rel. to RTA 402” value in test [2] is 1.55 fold and 1.55 ± 0.30^e fold. In addition, the IC50 in test [2] (setting [4]) amounted to 3.15 nM.
With `CN1CCN(C[C@]23CCC(C)(C)C[C@H]2[C@H]2C(=O)C=C4[C@@]5(C)C=C(C#N)C(=O)C(C)(C)[C@@H]5CC[C@@]4(C)[C@]2(C)CC3)C1=O` [Compound T15], the “AREc32 EC2X Relative to RTA 402 (Mean ± SD)” value in test [1] is 0.5^e fold. Further, the EC (2-fold) in test [1] (setting [3]) amounted to 0.00607 µM. The “NO IC50 Rel. to RTA 402” value in test [2] is listed as 0.64 ± 0.26^d fold. The 50% inhibitory concentration (IC50) in test [2] (setting [4]) turned out to be 1.18 ± 0.5 nM.
On the same counts, the results for `Cn1ccn([C@]23CCC(C)(C)C[C@H]2[C@H]2C(=O)C=C4[C@@]5(C)C=C(C#N)C(=O)C(C)(C)[C@@H]5CC[C@@]4(C)[C@]2(C)CC3)c1=O` [Compound T46] are 3.0^e fold, 0.0316 µM, 2.62 ± 0.10^d fold and 10.7 ± 1.35 nM.
For `CC(=O)N(C)C[C@]12CCC(C)(C)C[C@H]1[C@H]1C(=O)C=C3[C@@]4(C)C=C(C#N)C(=O)C(C)(C)[C@@H]4CC[C@@]3(C)[C@]1(C)CC2` [Compound T7], in that order: 0.5 ± 0.14^a fold, 0.0068 ± 3e-05 µM, 0.49 ± 0.14^e fold and 0.84 ± 0.37 nM.
On the same counts, the results for `CC1(C)CC[C@]2(Cn3cnnc3)CC[C@]3(C)[C@H](C(=O)C=C4[C@@]5(C)C=C(C#N)C(=O)C(C)(C)[C@@H]5CC[C@]43C)[C@@H]2C1` [Compound T49] are 4.5^e fold, 0.0389 µM, 13.72 ± 3.47^e fold and 26.9 ± 10.5 nM.
For the molecule `CC1(C)CC[C@]2(CN3CCNC3=O)CC[C@]3(C)[C@H](C(=O)C=C4[C@@]5(C)C=C(C#N)C(=O)C(C)(C)[C@@H]5CC[C@]43C)[C@@H]2C1` [Compound T14], the “AREc32 EC2X Relative to RTA 402 (Mean ± SD)” value in test [1] was 0.4^e fold. In test [1] (setting [3]), the EC (2-fold) is 0.00437 µM. For the same molecule, in test [2], the “NO IC50 Rel. to RTA 402” value is recorded as 0.51 ± 0.09^e fold. For the same molecule, in test [2] (setting [4]), the IC50 came out at 0.89 ± 0.08 nM.
In the case of `CC1(C)CC[C@]2(CN3CC(F)C3)CC[C@]3(C)[C@H](C(=O)C=C4[C@@]5(C)C=C(C#N)C(=O)C(C)(C)[C@@H]5CC[C@]43C)[C@@H]2C1` [Compound T26], the “AREc32 EC2X Relative to RTA 402 (Mean ± SD)” value in test [1] is 1.6^e fold. For the same molecule, the EC (2-fold) in test [1] (setting [3]) stood at 0.0236 µM. In addition, in test [2], the “NO IC50 Rel. to RTA 402” value is recorded as 2.73 ± 1.01^e fold. Besides, the IC50 in test [2] (setting [4]) came to 5.61 ± 1.84 nM.
On the same counts, the results for `C[C@@H]1C(=O)C(C#N)=C[C@]2(C)C3=CC(=O)[C@@H]4[C@@H]5CC(C)(C)CC[C@]5(CN5CCC5=O)CC[C@@]4(C)[C@]3(C)CC[C@@H]12` [Compound T65] are 0.4^e fold, 0.0047 µM, 0.36 ± 0.12^e fold and 0.42 ± 0.13 nM.
`CC1(C)CC[C@]2(CN3NCCC3=O)CC[C@]3(C)[C@H](C(=O)C=C4[C@@]5(C)C=C(C#N)C(=O)C(C)(C)[C@@H]5CC[C@]43C)[C@@H]2C1` [Compound T51]: in test [1], the “AREc32 EC2X Relative to RTA 402 (Mean ± SD)” value is 1.1^e fold. Besides, the EC (2-fold) in test [1] (setting [3]) came out at 0.0117 µM. In addition, the “NO IC50 Rel. to RTA 402” value in test [2] was 2.04 ± 0.73^d fold. Further, the IC50 in test [2] (setting [4]) is 8.55 ± 3.65 nM.
On the same counts, the results for `CC1(C)CC[C@]2(CN3CC(O)C3)CC[C@]3(C)[C@H](C(=O)C=C4[C@@]5(C)C=C(C#N)C(=O)C(C)(C)[C@@H]5CC[C@]43C)[C@@H]2C1` [Compound T28] are 0.9 ± 0.12^a fold, 0.0139 ± 0.00157 µM, 1.09 ± 0.16^e fold and 2.83 ± 0.92 nM.
On the same counts, the results for `CC1(C)CC[C@]2(CN3CCOC3)CC[C@]3(C)[C@H](C(=O)C=C4[C@@]5(C)C=C(C#N)C(=O)C(C)(C)[C@@H]5CC[C@]43C)[C@@H]2C1` [Compound T47] are 8.6^e fold, 0.122 µM, 7.54 ± 2.47^d fold and 17.3 ± 8.55 nM.
In the case of `CC1(C)CC[C@]2(CNC(=O)CF)CC[C@]3(C)[C@H](C(=O)C=C4[C@@]5(C)C=C(C#N)C(=O)C(C)(C)[C@@H]5CC[C@]43C)[C@@H]2C1` [Compound T67], in test [1], the “AREc32 EC2X Relative to RTA 402 (Mean ± SD)” value is listed as 0.3^e fold. Also, the EC (2-fold) in test [1] (Arec32, 19 h) came to 0.0033 µM. Besides, the “NO IC50 Rel. to RTA 402” value in test [2] is given as 0.38 ± 0.15^d fold. In test [2] (RAW264.7, read-out: NO IC50), the IC50 came out at 0.51 ± 0.31 nM.
As to `CC1(C)CC[C@]2(CNC(=O)C(F)F)CC[C@]3(C)[C@H](C(=O)C=C4[C@@]5(C)C=C(C#N)C(=O)C(C)(C)[C@@H]5CC[C@]43C)[C@@H]2C1` [Compound T63], in test [1], the “AREc32 EC2X Relative to RTA 402 (Mean ± SD)” value was 0.4^e fold. For the same molecule, the EC (2-fold) in test [1] (setting [3]) is 0.004 µM. The “NO IC50 Rel. to RTA 402” value in test [2] is recorded as 0.36 ± 0.11^d fold. For the same molecule, the IC50 in test [2] (setting [4]) amounted to 1.48 ± 0.54 nM.
As to `CC1(C)CC[C@]2(N3CCC3=O)CC[C@]3(C)[C@H](C(=O)C=C4[C@@]5(C)C=C(C#N)C(=O)C(C)(C)[C@@H]5CC[C@]43C)[C@@H]2C1` [Compound T38], in test [1], the “AREc32 EC2X Relative to RTA 402 (Mean ± SD)” value is recorded as 2.1^e fold. Further, in test [1] (setting [3]), the EC (2-fold) turned out to be 0.0361 µM. Moreover, in test [2], the “NO IC50 Rel. to RTA 402” value was 1.69 ± 0.84^e fold. In addition, the concentration for half-maximal inhibition (IC50) in test [2] (setting [4]) was 4.32 ± 3.51 nM.
